Data set [1] is described as follows: Metabolic stability in human liver microsomes. The procedure: The compounds were also assessed in human liver microsomal stability assays, plasma protein binding, aqueous solubility (pH 7.4), and evaluation of permeability using the Caco-2 assay.
Analysis in silico of the drug-like properties of the compounds generated in this study is used to drive compound selection. Physicochemical properties (log S, log P, etc.) of all of the new scaffolds are evaluated and compared to PF-74 using StarDrop (Optibrium, UK). The likelihood of metabolism of our new scaffolds, as compared to PF-74, by the common CYP P450 isoforms, was assessed using StarDrop and its P450 module (www dot optibrium dot com/stardrop/stardrop-p450-models dot php). StarDrop's P450 models use quantum mechanical calculations of the activation energy for hydrogen abstraction or direct oxidation, based on the semi-empirical AMi method. These are combined with ligand-based models of the steric and orientation effects of the binding pockets of each P450 isoform on the accessibility of each potential site of metabolism. This total analysis results in predictions of the regioselectivity of metabolism and the lability of each site, a measure of the efficiency of product formation—both important factors governing the rate of metabolism. Compounds of Formula I identified herein that meet the criteria for potency and cytotoxicity are evaluated in in vitro ADME assays (FIG. 8). Specifically, we use microsomal stability and plasma protein binding assessment as reliable indicators of clearance and half-life in vivo. Aqueous solubility is evaluated because low solubility or stability in assay media is detrimental to the development of sound structure-activity-relationships. Low solubility can also hamper our ability to formulate analogs for future in vivo studies. A Caco-2 assay is used to assess cell permeability issues.
T1/2 is the liver microsomal half-life, CLint, CLapp, and CLh are pharmacokinetic clearance parameters.

Another data set relates to HIV-1. Put plainly: microbe, parasite or virus in culture. The procedure: The potency of compounds of Formula I was evaluated via single round and multicycle HIV-1 replication assays. The single round assay is used as the first level of potency testing. […] The multicycle HIV-1 replication assay uses primary isolates and primary human peripheral blood mononuclear cells (PBMCs). Toxicity is evaluated simultaneously with the cells utilized in each assay to allow determination of the therapeutic index (TI=CC50/IC50) of each compound. HIV-1 replication assays are performed in primary PBMCs such as described in Kortager, et al., 2012, J Virol. 86(16):8472-8481, Zentner, et al., 2013, ChemMedChem. 8(3):426-432 and Zentner, et al., 2013, Bioorg Med Chem Lett. 2013; 23(4): 1132-1135.

A further data set concerns HIV-1 CA hexamer protein. In words: Direct binding to hexameric HIV-1 CA via SPR. Particulars: sensor chip immobilized CA hexamer. From the text:
A direct binding assay was established using SPR (surface plasmon resonance) (FIGS. 5-7). This assay allows for the confirmation that maintained target specificity is maintained, and the analysis of the kinetic signatures of newly synthesized compounds allows for prioritization of compounds for antiviral testing. […] Therefore, compounds with slower off-rates are prioritized for antiviral testing, as this characteristic should translate to increased potency. Additionally, the interaction of the next-generation compounds with CA proteins from clades A1, A2, B, C, and D (FIG. 11) was quantified. Hexameric versions of these constructs were developed, given their differential assembly properties, compared to the NL4-3 variant. This can be accomplished by modelling of the CA variants and mutation of residues (either A14C/E45C or A42C/T54C) between the N-terminal domains of adjacent subunits. Second, the cross-linked hexamers were prevented from polymerizing further into hyperstable capsid-like structures by mutations (W184A and M185A). The application of this to make hexameric capsomrs was first outlined in Pomillos et al. 2010. J. Mol. Biol. 401(5):985-95. The SPR analysis indicates a compound's potential performance in the therapeutic spectrum testing against other clades in the following sub-aim and provide a facile way in which to rank order compounds for antiviral testing.

The test system of data set [2] is cells utilized in each assay. Put plainly: Toxicity (CC50) evaluated with the cells utilized in the infection assay. Format: cell-based. Particulars: Table 2. As to the method:
(§1) As used herein, the term “CC50” is the half-maximal cytotoxic concentration of a particular compound or agent.
(§2) The potency of compounds of Formula I was evaluated via single round and multicycle HIV-1 replication assays. The single round assay is used as the first level of potency testing. Compounds that display antiviral activity equal to or greater than PF-74 in the primary assay are quantified in the multicycle HIV-1 assays. The multicycle HIV-1 replication assay uses primary isolates and primary human peripheral blood mononuclear cells (PBMCs). Toxicity is evaluated simultaneously with the cells utilized in each assay to allow determination of the therapeutic index (TI=CC50/IC50) of each compound. HIV-1 replication assays are performed in primary PBMCs such as described in Kortager, et al., 2012, J Virol. 86(16):8472-8481, Zentner, et al., 2013, ChemMedChem. 8(3):426-432 and Zentner, et al., 2013, Bioorg Med Chem Lett. 2013; 23(4): 1132-1135.

Assay in data set [3]: as above
Format: cell-based. The following applies: Table 2. As to the method:
as §1, §2

The mark [4] stands for this setting: racemates and (R)/(S) enantiomers, Table 4.
Setting [5] is: human liver microsomal stability assay, compared to PF-74.
Where [6] appears, read: liver microsomal half-life, Table 3.
[7] abbreviates: metabolic stability of racemates and (R)/(S) enantiomers, Table 5.
Setting [8] is: inhibition of HIV-1 in the early stages of replication, Table 2.
Where [9] appears, read: human, liver microsomes, T1/2, liver microsomal half-life, Table 3.
[10] abbreviates: human, liver microsomes, T1/2, metabolic stability of racemates and (R)/(S) enantiomers, Table 5.
[11] abbreviates: human liver microsomes, Table 1.

Consider ten molecules from patent US20210115061A1, “Small-Molecule HIV-1 Capsid Protein Inhibitors and Methods Using Same” (DREXEL UNIVERSITY, priority 2018, published 2021).

The structures appear in SMILES notation. “And” between values parts separate entries of the source, which are not always exact repeats. Equal entries are not always repeated. “Also recorded” adds a separate entry of the source. Where two headings read alike, the source gives them in different places.

In data set [1] (human, microsomes), `Cc1[nH]c2ccccc2c1CC(=O)N[C@H](Cc1ccccc1)C(=O)N(C)c1ccccc1` [(R)-PF-74, reference compound] returned a T1/2 of 0.6 min.
Take `Cc1[nH]c2ccccc2c1CC(=O)N[C@@H](Cc1ccccc1)C(=O)N(C)c1ccccc1` [(S)-PF-74, reference compound]: the T1/2 in data set [1] (human, microsomes) amounted to 0.5 min. Besides, in the data set with HIV-1 (setting [4]), the IC50 was found to be 80 ± 5.7 nM and the “Therapeutic index (CC50/IC50)” value is recorded as 3075.
Regarding `CC(C)c1nc2c(n1CC(=O)NC(Cc1ccccc1)C(=O)N(C)c1ccccc1)CCCC2` (centres unmarked) [CX03], in data set [1] (human, microsomes), the “improvement in metabolic stability over PF-74” value (“improvement … over PF-74” for short) is on record as 4 fold. In the data set with HIV-1 (compared to PF-74), the “reduction in potency relative to PF-74” value amounted to 10 fold. The “binding to HIV-1 CA hexamer (in words)” value in the data set on HIV-1 CA hexamer protein is recorded as “relatively low-affinity”.
In the case of `CN(C(=O)C(Cc1ccccc1)NC(=O)Cc1n[nH]c2c(N)cccc12)c1ccccc1` (centres unmarked) [Compound C4], the “improvement … over PF-74” value in data set [1] (setting [5]) was 34 fold and 30 fold. This molecule displayed a T1/2 in data set [1] (setting [6]) of 20 min. Moreover, in data set [1] (liver microsomes, Table 3), the CLapp is given as 67.126 mL/min/kg, the CLh was found to be 15.409 mL/min/kg, the CLint was 69.6 µL/min/mg and the Eh amounted to 77. Besides, the k in data set [1] (liver microsomes, Table 3) was 0.03481. Further, the T1/2 in data set [1] (setting [7]) was 20 min. The “increase in the therapeutic index (CC50/IC50) over PF-74” value in the data set with HIV-1 (compared to PF-74) is listed as “over 7 fold”. In the data set on HIV-1 (setting [8]), this molecule showed an IC50 of 51.5 ± 18.4 nM. In the data set on HIV-1 (setting [4]), the IC50 worked out at 51.5 ± 18.4 nM and the “Therapeutic index (CC50/IC50)” value worked out at 5515. The same molecule registered a CC50 in data set [2] of 284000 ± 200 nM. The “binding to HIV-1 CA hexamer (in words)” value in the data set on HIV-1 CA hexamer protein was “interacts with the CA hexamer similarly to PF-74; also recorded: higher affinity”.
On to `Cc1[nH]c2ccccc2c1CC(=O)NC(Cc1ccccc1)C(=O)N(C)c1ccc2[nH]ncc2c1` (centres unmarked) [Compound C11], for which the “improvement … over PF-74” value in data set [1] (setting [5]) amounted to 34 fold. In data set [1] (human, liver microsomes), this molecule gave an intrinsic clearance (microsomal CLint) of 78.7 µL/min/mg. In data set [1] (setting [9]), this molecule displayed a half-life of 18 min. This molecule registered a half-life in data set [1] (setting [10]) of 17.6 min. In data set [1] (liver microsomes, Table 3), this molecule came in with a CLapp of 75.866 mL/min/kg, a CLh of 15.828 mL/min/kg, an Eh of 79.1 and a k of 0.03934. In the data set with HIV-1 (Human immunodeficiency virus 1), 173 ± 58 nM corresponded to half-maximal inhibition (IC50). Moreover, in the data set with HIV-1 (setting [4]), the “Therapeutic index (CC50/IC50)” value is given as 2115. In data set [3], half-maximal cytotoxicity (CC50) was put at 366000 ± 29000 nM.
As to `CN(C(=O)C(Cc1ccccc1)NC(=O)Cc1n[nH]c2c(N)cccc12)c1ccc2[nH]ncc2c1` (centres unmarked) [Compound C12], the “improvement … over PF-74” value in data set [1] (setting [5]) is recorded as 118 fold. For the same molecule, the microsomal CLint in data set [1] (human, liver microsomes) is 19.5 µL/min/mg. In data set [1] (setting [9]), this molecule displayed a half-life of 71 min. The same molecule returned a half-life in data set [1] (setting [10]) of 71 min. In data set [1] (liver microsomes, Table 3), this molecule yielded a CLapp of 18.819 mL/min/kg, a CLh of 9.696 mL/min/kg, an Eh of 48.5 and a k of 0.00976. For the same molecule, the IC50 with HIV-1 (Human immunodeficiency virus 1) turned out to be 302 ± 167 nM. Besides, in the data set on HIV-1 (setting [4]), the “Therapeutic index (CC50/IC50)” value was 606. For the same molecule, in data set [3], the CC50 came to 183000 ± 15000 nM.
Consider `Cc1[nH]c2ccc(S(=O)(=O)F)cc2c1CC(=O)NC(Cc1ccccc1)C(=O)N(C)c1ccc2cn[nH]c2c1` (centres unmarked) [Compound C13], for which the IC50 turned out to be 23.1 ± 4.29 nM in the data set with HIV-1 (Human immunodeficiency virus 1, 24 h, read-out: 24 h post-infection IC50); 23.9 ± 3.24 nM in the data set on HIV-1 (Human immunodeficiency virus 1, 48 h, read-out: 48 h post-infection IC50); 29.1 ± 5.67 nM in the data set with HIV-1 (Human immunodeficiency virus 1, 72 h, read-out: 72 h post-infection IC50). Moreover, the “binding to HIV-1 CA hexamer (in words)” value in the data set on HIV-1 CA hexamer protein is “even more potent binding than (S)-C11”.
For the molecule `Cc1[nH]c2ccccc2c1CC(=O)N[C@@H](Cc1ccccc1)C(=O)N(C)c1ccccc1` [PF-74, reference compound], in data set [1] (setting [11]), the CLapp turned out to be 2249.427 mL/min/kg, the CLint is 2332.7 µL/min/mg, the Clh worked out at 19.824 mL/min/kg and the Eh was found to be 99.12%. Also, in data set [1] (setting [11]), the T1/2 was determined as 0.59 min, the k is recorded as 1.166 and the “metabolic lability (in words)” value was “highly metabolically labile”. In addition, the T1/2 in data set [1] (setting [6]) stood at 0.6 min. In data set [1] (liver microsomes, Table 3), the CLapp is reported as 2249.427 mL/min/kg, the CLh was 19.824 mL/min/kg, the CLint is 2332.7 µL/min/mg and the Eh stood at 99.12. This molecule also yielded a k in data set [1] (liver microsomes, Table 3) of 1.166. The molecule also had a T1/2 in data set [1] (setting [7]) of 0.6 min. Moreover, 95.1 ± 31.7 nM corresponded to half-maximal inhibition in the data set with HIV-1 (setting [8]) (IC50). In the data set with HIV-1 (setting [4]), the midpoint of inhibition, the IC50, lay at 95.1 ± 31.7 nM and the “Therapeutic index (CC50/IC50)” value turned out to be 768. Moreover, in data set [2], half-maximal cytotoxicity (CC50) was put at 73000 ± 15000 nM. Moreover, the “binding to HIV-1 CA hexamer (in words)” value with HIV-1 CA hexamer protein was “higher affinity”.
In data set [1] (setting [11]), `C[C@]12CC[C@H]3[C@@H](CCC4=CC(=O)CC[C@@]43C)[C@@H]1CC[C@@H]2O` [Testosterone, reference compound] registered a CLapp of 74.292 mL/min/kg and a Clh of 15.758 mL/min/kg. In addition, in data set [1] (liver microsomes, Table 3), the CLapp came out at 74.292 mL/min/kg and the CLh is 15.758 mL/min/kg.
In data set [1] (human), `CC(=O)CC(c1ccccc1)c1c(O)c2ccccc2oc1=O` (centres unmarked) [Warfarin, reference compound] yielded a k of −0.00509.
